Data on 16 compounds can be found in paper PMC5300203, “O-prenylated 3-carboxycoumarins as a novel class of 15-LOX-1 inhibitors” (PLoS ONE, 2017).

One data set deals with T1, human 15-LOX-1 (Homo sapiens, UniProt P16050).
T1 construct: Human 15-LOX-1 was prepared from isolated human eosinophil based on the procedure reported by Sigal et al; from tissue; host or cells: eosinophils purified from blood of hypereosinophilic human donors; 100,000 g supernatant, 30% and 60% ammonium sulfate pellets
T1 sequence (P16050 1-662): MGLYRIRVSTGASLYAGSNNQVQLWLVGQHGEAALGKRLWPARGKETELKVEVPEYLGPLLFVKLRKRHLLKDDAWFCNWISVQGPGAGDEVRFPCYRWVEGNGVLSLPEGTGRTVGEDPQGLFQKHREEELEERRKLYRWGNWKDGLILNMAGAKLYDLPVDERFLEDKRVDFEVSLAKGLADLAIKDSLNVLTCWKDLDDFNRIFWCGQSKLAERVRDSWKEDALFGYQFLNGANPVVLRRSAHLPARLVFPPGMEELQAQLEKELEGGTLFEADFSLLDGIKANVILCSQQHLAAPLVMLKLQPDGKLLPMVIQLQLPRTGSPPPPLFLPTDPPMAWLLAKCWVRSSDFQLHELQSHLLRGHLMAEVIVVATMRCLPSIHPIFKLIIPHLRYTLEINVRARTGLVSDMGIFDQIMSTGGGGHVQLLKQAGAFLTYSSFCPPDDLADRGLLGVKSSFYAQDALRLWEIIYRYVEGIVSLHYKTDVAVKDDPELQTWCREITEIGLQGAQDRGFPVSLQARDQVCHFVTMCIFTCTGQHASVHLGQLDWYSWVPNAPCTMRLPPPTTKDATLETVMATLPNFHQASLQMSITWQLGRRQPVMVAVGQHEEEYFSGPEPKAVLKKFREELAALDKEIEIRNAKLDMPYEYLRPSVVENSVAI
Put plainly: Lipoxygenase inhibitory assessment (DMAB-MBTH peroxide method, linoleic acid substrate). Type of data set: biochemical. On the procedure: The inhibitory activity of the synthetic compounds against human 15-LOX-1 was determined utilizing modified catalytic oxidative coupling of 3-methyl-2-benzothiazolinone (MBTH) with 3-(dimethylamino)benzoic acid (DMAB) as reported in previous studies. In this method, the basis for the determination of lipoxygenase activity is the measurement of peroxide concentration. Human 15-LOX-1 was prepared from isolated human eosinophil based on the procedure reported by Sigal et al. […] Because of the instability of the purified 15-LOX-1, the crude form of the enzyme was utilized. Eosinophils from blood of hypereosinophilic donors (8–11% eosinophils) were purified to more than 85% through “hypotonic lysis and centrifugation” method reported by Samoszuk.
Linoleic acid and two assay solutions (A and B) were prepared in advance.
Solution A was 50 mM DMAB in an l00 mM phosphate buffer (pH 7.0). Solution B was a mixture of l0 mM MBTH (3 mL), hemoglobin (5 mg/mL, 3 mL) in 50 mM phosphate buffer at pH 5.0 (25 ml). A linoleic acid solution was prepared by mixing 5.6 mg of linoleic acid (Sigma Aldrich, L1376) with 0.5 mL methanol and then diluted with KOH 100 mM to a final volume of 5 mL (4 mM).
In the standard assay, the sample in DMSO (12.5 μL), 15-LOX-1 (104 units/mL; 30 μL) and phosphate buffer, pH 7.0 (50 mM; 435 μL) were mixed in 48 well plate and perincubation was carried out for 10 min at 30°C. A control test was done with the same volume of ethanol. After the preincubation, linoleic acid solution (25 μL) was added to start the peroxidation reaction at 30°C, and, 10 min later, solution A (135 μL) and then solution B (65 μL) was added to start the color formation. Further, 3 min later, 100 μL of a 2% SDS solution was added to terminate the reaction. The absorbance at 598 nm was compared with the control test. These experiments were performed in triplicate. The data analysis was performed using GraphPad Prism 5.01.

The mark [1] stands for this setting: human 15-LOX-1 from eosinophils (crude), linoleic acid, 30°C, ± SD (n = 3), read-out: IC50.
[2] abbreviates: human 15-LOX-1 from eosinophils (crude), linoleic acid, 30°C, ± SD (n = 3).

SMILES strings stand for the structures. Where two headings read alike, the source gives them in different places.

Turning to `C=CCOc1ccc2cc(C(=O)O)c(=O)oc2c1` [Compound 12a, 7-(allyloxy)-2-oxo-2H-chromene-3-carboxylic acid], the melting point is 205 to 207 °C. For the same compound, at human 15-LOX-1 (setting [1]), the 50% inhibitory concentration (IC50) stood at 114 ± 10.1 µM.

`CC(C)=CCC/C(C)=C/COc1ccc2cc(C(=O)O)c(=O)oc2c1` [Compound 12c, 7-((E)-3,7-dimethylocta-2,6-dienyloxy)-2-oxo-2H-chromene-3-carboxylic acid]: the melting point is 118 to 119 °C. Moreover, the IC50 at human 15-LOX-1 (setting [1]) amounted to 12.1 ± 0.91 µM.

Compound `CC(C)=CCOc1ccc2cc(C(=O)O)c(=O)oc2c1` [Compound 12b, 7-(3-methylbut-2-enyloxy)-2-oxo-2H-chromene-3-carboxylic acid] yielded a melting point of 147 to 148 °C. The IC50 at human 15-LOX-1 (setting [1]) is 81.3 ± 5.3 µM.

In the case of `CC(C)=CCOc1cccc2oc(=O)c(C(=O)O)cc12` [Compound 4b, 5-(3-methylbut-2-enyloxy)-2-oxo-2H-chromene-3-carboxylic acid], the melting point was 85 to 86 °C. For the same compound, the IC50 at human 15-LOX-1 (setting [1]) amounted to 62.5 ± 5.9 µM.

Consider `Cc1nc(N2CCN(C)CC2)nc2c1Sc1ccccc1N2` [Compound 4-MMPB, 4-methyl-2-(4-methylpiperazinyl)pyrimido[4,5-b]benzothiazine, reference compound], for which, at human 15-LOX-1 (setting [1]), the IC50 was 16.8 ± 1.1 µM.

Turning to `CC(C)=CCC/C(C)=C/CC/C(C)=C/COc1cccc2oc(=O)c(C(=O)O)cc12` [Compound 4d, 5-((2E,6E)-3,7,11-trimethyldodeca-2,6,10-trienyloxy)-2-oxo-2H-chromene-3-carboxylic acid], the melting point was in the range of 39 to 40 °C. At human 15-LOX-1, this compound registered an IC50 of 0.74 ± 0.05 µM. Besides, the “higher lipoxygenase inhibitory activity compared to the corresponding carboxylate-off analog” value at human 15-LOX-1 (3-carboxycoumarin vs farnesyloxycoumarin without carboxylic acid (4d vs 4d')) is listed as 2 folds. Moreover, at human 15-LOX-1 (setting [2]), the IC50 was 1.6 ± 0.08 µM.

For `CC(C)=CCC/C(C)=C/COc1cccc2oc(=O)c(C(=O)O)cc12` [Compound 4c, 5-((E)-3,7-dimethylocta-2,6-dienyloxy)-2-oxo-2H-chromene-3-carboxylic acid], the melting point is 49 to 50 °C. In addition, the IC50 on human 15-LOX-1 (setting [1]) amounted to 4.8 ± 0.55 µM.

`CC(C)=CCOc1ccc2oc(=O)c(C(=O)O)cc2c1` [Compound 8b, 6-(3-methylbut-2-enyloxy)-2-oxo-2H-chromene-3-carboxylic acid]: the melting point was 158 to 159 °C. Moreover, the IC50 on human 15-LOX-1 (setting [1]) came out at 227 ± 22.1 µM.

Compound `CC(C)=CCOc1cccc2cc(C(=O)O)c(=O)oc12` [Compound 18b, 8-(3-methylbut-2-enyloxy)-2-oxo-2H-chromene-3-carboxylic acid] had a melting point of 143 to 144 °C. Besides, the IC50 on human 15-LOX-1 (setting [1]) turned out to be 263 ± 23 µM.

Compound `C=CCOc1ccc2oc(=O)c(C(=O)O)cc2c1` [Compound 8a, 6-(allyloxy)-2-oxo-2H-chromene-3-carboxylic acid] registered a melting point of 167 to 168 °C. For the same compound, the IC50 at human 15-LOX-1 (setting [1]) was determined as 296 ± 26.3 µM.

Regarding `C=CCOc1cccc2cc(C(=O)O)c(=O)oc12` [Compound 18a, 8-(allyloxy)-2-oxo-2H-chromene-3-carboxylic acid], the melting point was 198 to 200 °C. Further, the IC50 on human 15-LOX-1 (setting [1]) was determined as 293 ± 20.3 µM.

In turn, `C=CCOc1cccc2oc(=O)c(C(=O)O)cc12` [Compound 4a, 5-(allyloxy)-2-oxo-2H-chromene-3-carboxylic acid] showed a melting point of 115 to 117 °C. Also, the IC50 on human 15-LOX-1 (setting [1]) stood at 93.5 ± 7.6 µM.

With `CC(C)=CCC/C(C)=C/CC/C(C)=C/COc1ccc2cc(C(=O)O)c(=O)oc2c1` [Compound 12d, 7-((2E,6E)-3,7,11-trimethyldodeca-2,6,10-trienyloxy)-2-oxo-2H-chromene-3-carboxylic acid], the melting point was 87 to 90 °C.

For the compound `CC(C)=CCC/C(C)=C/CC/C(C)=C/COc1ccc2oc(=O)c(C(=O)O)cc2c1` [Compound 8d, 6-((2E,6E)-3,7,11-trimethyldodeca-2,6,10-trienyloxy)-2-oxo-2H-chromene-3-carboxylic acid], the melting point lay within 98 to 99 °C. Besides, half-maximal inhibition against human 15-LOX-1 (IC50) required 10.4 ± 2.1 µM. For the same compound, the “lower lipoxygenase inhibitory potency compared to the corresponding carboxylate-off analog” value at human 15-LOX-1 (3-carboxycoumarin vs farnesyloxycoumarin without carboxylic acid (d vs d')) is on record as 10 folds. Besides, the IC50 on human 15-LOX-1 (setting [2]) was determined as 1.0 ± 0.06 µM.

Take `CC(C)=CCC/C(C)=C/COc1ccc2oc(=O)c(C(=O)O)cc2c1` [Compound 8c, Ethyl 6-((E)-3,7-dimethylocta-2,6-dienyloxy)-2-oxo-2H-chromene-3-carboxylic acid]: the melting point is 130 to 131 °C. For the same compound, the IC50 on human 15-LOX-1 (setting [1]) worked out at 21.5 ± 1.6 µM.

Take `CC(C)=CCC/C(C)=C/COc1cccc2cc(C(=O)O)c(=O)oc12` [Compound 18c, 8-((E)-3,7-dimethylocta-2,6-dienyloxy)-2-oxo-2H-chromene-3-carboxylic acid]: the melting point is 100 to 101 °C. On human 15-LOX-1 (setting [1]), the IC50 worked out at 20.4 ± 2.2 µM.

The term IC50 denotes the midpoint of a concentration-inhibition curve. The melting point is the temperature, or range, at which the solid turns liquid.
